The supplement of paper PMC10307832

Experiments:
Assay in all cases: relative viability (nuclei count vs DMSO), 5 days (fraction); higher = more cells survive
[1] = compound: O=C(Nc1cc(C(F)(F)F)cc(C(F)(F)F)c1)c1cc(Cl)ccc1O [IMD-0354] + O=C(c1cc(Cc2n[nH]c(=O)c3ccccc23)ccc1F)N1CCN(C(=O)C2CC2)CC1 [Olaparib] (partner 8 µM)
Summary of the method: (§1)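 Medians of duplicate plates are given as relative viability. That measure is the nuclei count in treated wells divided by the count in vehicle wells. Counts were taken on 4× images of lung cancer cell lines in 1536-well plates, 5 days after pin-tool dosing the day after seeding with one drug alone or a fixed anchor-drug dose plus five library-drug doses (not always all listed) in √10 steps.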

[2] = compound: O=C(Nc1cc(C(F)(F)F)cc(C(F)(F)F)c1)c1cc(Cl)ccc1O [IMD-0354] + Nc1ncn([C@H]2C[C@H](O)[C@@H](CO)O2)c(=O)n1 [Decitabine] (partner 2 µM)
Summary of the method: as §1

[3] = compound: Cc1cnc(CNC(=O)c2c(=O)c3ccc(N4CCCN(C)CC4)nc3n3c2sc2ccccc23)cn1 [CX-5461] + Nc1nc2[nH]cc(CCc3ccc(C(=O)N[C@@H](CCC(=O)O)C(=O)O)cc3)c2c(=O)[nH]1 [Pemetrexed] (partner 0.2 µM)
Summary of the method: as §1

[4] = compound: O=C(Nc1cc(C(F)(F)F)cc(C(F)(F)F)c1)c1cc(Cl)ccc1O [IMD-0354] + COc1cccc2cc(-c3nc([C@H]4CC[C@H](C(=O)O)CC4)n4ncnc(N)c34)[nH]c12 [OSI-027] (partner 0.5 µM)
Summary of the method: as §1

Cell Line	relative viability ([1]; first compound 0.04 µM)	relative viability ([1]; first compound 0.1265 µM)	relative viability ([1]; first compound 0.4 µM)	relative viability ([1]; first compound 1.265 µM)	relative viability ([1]; first compound 4 µM)	relative viability ([2]; first compound 0.04 µM)	relative viability ([2]; first compound 0.1265 µM)	relative viability ([2]; first compound 0.4 µM)	relative viability ([2]; first compound 1.265 µM)	relative viability ([2]; first compound 4 µM)	relative viability ([3]; first compound 0.01 µM)	relative viability ([3]; first compound 0.03162 µM)	relative viability ([3]; first compound 0.1 µM)	relative viability ([3]; first compound 0.3162 µM)	relative viability ([3]; first compound 1 µM)	relative viability ([4]; first compound 0.04 µM)	relative viability ([4]; first compound 0.1265 µM)	relative viability ([4]; first compound 0.4 µM)	relative viability ([4]; first compound 1.265 µM)	relative viability ([4]; first compound 4 µM)
BEN	1.07	0.975	0.782	0.437	0.394	0.739	0.741	0.567	0.391	0.347	0.75	0.742	0.711	0.759	0.556	0.306	0.301	0.264	0.311	0.195
NCI-H1666	0.752	0.748	0.857	0.703	0.562	0.718	0.751	0.716	0.531	0.393	0.854	0.848	1.01	0.828	0.769	0.86	0.841	0.641	0.415	0.302
LC-2-ad	0.699	0.71	0.466	0.364	0.223	0.876	0.698	0.5	0.322	0.199	0.238	0.27	0.244	0.296	0.279	0.827	0.852	0.441	0.298	0.193
SW 1573	0.537	0.467	0.264	0.0858	0.0862	0.814	0.588	0.245	0.115	0.0911	0.88	0.845	0.153	0.692	0.203	0.849	0.566	0.349	0.124	0.0864
ChaGo-K-1	0.34	0.455	0.375	0.241	0.218	0.509	0.508	0.435	0.511	0.198	0.251	0.256	0.243	0.214	0.255	0.725	0.514	0.384	0.269	0.232
COR-L 105	0.644	0.666	0.62	0.562	0.443	0.674	0.685	0.576	0.619	0.318	1.13	0.943	1.03	1.16	0.706	0.812	0.697	0.533	0.363	0.23
NCI-H1975	1.07	0.912	0.437	0.191	0.18	0.389	0.409	0.36	0.2	0.21	0.286	0.296	0.274	0.331	0.264	0.917	0.6	0.402	0.205	0.155
NCI-H1993	0.917	0.982	0.819	0.651	0.541	0.682	0.658	0.516	0.458	0.367	0.529	0.67	0.582	0.587	0.625	0.576	0.504	0.562	0.522	0.482
RERF-LC-KJ	1.08	0.969	0.415	0.169	0.229	0.901	0.64	0.493	0.183	0.166	0.508	0.465	0.442	0.403	0.434	0.649	0.628	0.493	0.198	0.214
NCI-H23	0.277	0.35	0.24	0.132	0.197	0.271	0.313	0.295	0.192	0.24	0.524	0.862	0.7	0.71	0.508	0.538	0.631	0.341	0.195	0.19
HCC-366	0.363	0.371	0.231	0.053	0.0706	0.423	0.395	0.248	0.0815	0.0425	0.196	0.172	0.179	0.197	0.149	0.909	0.929	0.496	0.209	0.0404
EMC-BAC-2	0.456	0.511	0.327	0.226	0.26	0.955	0.994	0.696	–	0.282	0.435	0.439	0.395	0.443	0.399	0.403	0.386	0.33	0.336	0.3
NCI-H2405	0.905	0.866	0.491	0.258	0.258	0.883	0.801	0.636	0.294	0.347	1.06	0.892	1	1.02	0.911	0.696	0.601	0.552	0.312	0.307
SK-MES-1	0.894	0.643	0.312	0.19	0.226	0.387	0.386	0.306	0.176	0.205	0.95	0.988	0.888	0.955	0.546	0.647	0.542	0.462	0.199	0.202
NCI-H2170	0.531	0.647	0.421	0.561	0.185	0.467	0.457	0.37	0.443	0.396	0.252	0.257	0.267	0.26	0.272	0.764	0.673	0.475	0.547	0.231
NCI-H2342	0.432	0.478	0.356	0.38	0.432	0.728	0.707	0.601	0.656	0.5	0.764	0.815	0.751	0.744	0.745	0.723	0.659	0.499	0.472	0.482

Cell Line	relative viability ([1]; first compound 0.04 µM)	relative viability ([1]; first compound 0.1265 µM)	relative viability ([1]; first compound 0.4 µM)	relative viability ([1]; first compound 1.265 µM)	relative viability ([1]; first compound 4 µM)	relative viability ([2]; first compound 0.04 µM)	relative viability ([2]; first compound 0.1265 µM)	relative viability ([2]; first compound 0.4 µM)	relative viability ([2]; first compound 1.265 µM)	relative viability ([2]; first compound 4 µM)	relative viability ([3]; first compound 0.01 µM)	relative viability ([3]; first compound 0.03162 µM)	relative viability ([3]; first compound 0.1 µM)	relative viability ([3]; first compound 0.3162 µM)	relative viability ([3]; first compound 1 µM)	relative viability ([4]; first compound 0.04 µM)	relative viability ([4]; first compound 0.1265 µM)	relative viability ([4]; first compound 0.4 µM)	relative viability ([4]; first compound 1.265 µM)	relative viability ([4]; first compound 4 µM)
EPLC-272H	1.16	0.495	0.599	0.106	0.38	0.372	0.341	0.362	0.337	0.288	0.319	0.382	0.367	0.402	0.377	0.288	0.281	0.292	0.167	0.0714
NCI-H1915	0.264	0.263	0.235	0.175	0.136	0.299	0.267	0.224	0.25	0.169	0.536	0.509	0.487	0.496	0.495	0.589	0.629	0.107	0.241	0.155
NCI-H596	0.758	0.635	0.701	0.818	0.463	1.02	0.998	0.825	0.849	0.616	0.47	0.45	0.523	0.504	0.48	0.881	0.812	0.429	0.793	0.246
NCI-H322M	0.789	0.773	0.6	0.407	0.517	0.747	0.583	0.617	0.403	0.404	0.568	0.558	0.708	0.567	0.62	0.612	0.493	0.427	0.285	0.33
NCI-H522	0.517	0.716	0.625	0.46	0.333	0.748	0.659	0.615	0.57	0.428	1.15	1.1	0.832	–	0.918	0.723	0.683	0.688	0.385	0.343
NCI-H647	0.67	0.485	0.292	0.0684	0.113	0.381	0.426	0.237	0.117	0.106	0.186	0.165	0.176	0.194	0.158	0.836	0.599	0.367	0.364	0.0879
LK-2	0.695	1.02	–	0.526	0.172	0.292	0.315	–	0.141	0.196	0.213	0.258	0.299	–	0.236	0.193	0.198	0.235	0.19	0.215
NCI-H358	0.569	0.543	0.335	0.14	0.198	0.239	0.204	0.172	0.106	0.108	0.159	0.157	0.165	0.173	0.156	0.676	0.826	0.403	0.124	0.141
NCI-H2085	0.785	0.795	0.713	0.412	0.377	0.59	0.516	0.551	0.421	0.337	1.03	0.907	0.88	0.989	0.799	0.773	0.78	0.522	0.362	0.212
NCI-H441	0.537	0.541	0.604	0.186	0.194	0.223	0.256	0.247	0.131	0.146	0.261	0.268	0.241	0.242	0.226	0.593	0.604	0.329	0.169	0.231
LOU-NH91	0.938	0.447	0.285	0.147	0.282	0.834	0.722	0.448	0.223	0.243	0.35	0.377	0.409	0.354	0.344	0.77	0.692	0.335	0.27	0.198
NCI-H3122	0.461	0.633	0.417	0.509	0.137	0.46	0.455	0.408	0.469	0.227	0.201	0.196	0.2	0.206	0.18	1.08	0.851	0.505	0.223	0.114
NCI-H460	0.395	0.322	0.363	0.0469	0.0473	0.401	0.561	0.183	0.0498	0.0274	0.0543	0.0602	0.0575	0.0623	0.0755	0.886	0.626	0.225	0.0286	0.0262
NCI-H650	0.329	0.355	0.32	0.211	0.144	0.303	0.3	0.346	0.288	0.201	1.05	0.986	0.879	0.943	0.873	0.591	0.498	0.447	0.29	0.177
NCI-H661	0.752	0.774	0.356	0.256	0.261	0.567	0.534	0.389	0.244	0.233	0.928	0.902	0.855	0.802	0.722	0.812	0.66	0.577	0.264	0.25
NCI-H1944	0.377	0.331	0.3	0.302	0.191	0.44	0.451	0.398	0.473	0.147	0.561	0.653	0.531	0.451	0.271	0.441	0.445	0.375	0.317	0.161
